Results reported in patent publication US11548900B2, “Oxazino-quinazoline and oxazino-quinoline type compound, preparation method and uses thereof” (BEIJING SCITECH-MQ PHARMACEUTICALS LIMITED, priority 2018, dated 2023).

Columns and labels:
BT474 cells = assay: Inhibition of cell proliferation, BT474 (CCK-8, 72 h); assay type: cell-based
Summary of the method: (§1)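 BT474 and HCC827 seeded at 10,000 and 3000 cells/well respectively, cultured overnight, then exposed to 10-point 3-fold compound dilutions (top stock 10 mM; 0.25% DMSO final) for 72 h. Viability by CCK-8, OD450; survival normalised to untreated and cell-free blanks, IC50 from curve fit.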

EGFR kinase = EGFR kinase (Homo sapiens (Human), UniProt P00533); assay: Inhibition of EGFR kinase activity (ULight-labeled JAK-1 (Tyr1023) peptide substrate); assay type: biochemical; details: EGFR kinase 0.35 nM, ATP 150 μM, 2 hours
Sequence of EGFR kinase (P00533 25-1210): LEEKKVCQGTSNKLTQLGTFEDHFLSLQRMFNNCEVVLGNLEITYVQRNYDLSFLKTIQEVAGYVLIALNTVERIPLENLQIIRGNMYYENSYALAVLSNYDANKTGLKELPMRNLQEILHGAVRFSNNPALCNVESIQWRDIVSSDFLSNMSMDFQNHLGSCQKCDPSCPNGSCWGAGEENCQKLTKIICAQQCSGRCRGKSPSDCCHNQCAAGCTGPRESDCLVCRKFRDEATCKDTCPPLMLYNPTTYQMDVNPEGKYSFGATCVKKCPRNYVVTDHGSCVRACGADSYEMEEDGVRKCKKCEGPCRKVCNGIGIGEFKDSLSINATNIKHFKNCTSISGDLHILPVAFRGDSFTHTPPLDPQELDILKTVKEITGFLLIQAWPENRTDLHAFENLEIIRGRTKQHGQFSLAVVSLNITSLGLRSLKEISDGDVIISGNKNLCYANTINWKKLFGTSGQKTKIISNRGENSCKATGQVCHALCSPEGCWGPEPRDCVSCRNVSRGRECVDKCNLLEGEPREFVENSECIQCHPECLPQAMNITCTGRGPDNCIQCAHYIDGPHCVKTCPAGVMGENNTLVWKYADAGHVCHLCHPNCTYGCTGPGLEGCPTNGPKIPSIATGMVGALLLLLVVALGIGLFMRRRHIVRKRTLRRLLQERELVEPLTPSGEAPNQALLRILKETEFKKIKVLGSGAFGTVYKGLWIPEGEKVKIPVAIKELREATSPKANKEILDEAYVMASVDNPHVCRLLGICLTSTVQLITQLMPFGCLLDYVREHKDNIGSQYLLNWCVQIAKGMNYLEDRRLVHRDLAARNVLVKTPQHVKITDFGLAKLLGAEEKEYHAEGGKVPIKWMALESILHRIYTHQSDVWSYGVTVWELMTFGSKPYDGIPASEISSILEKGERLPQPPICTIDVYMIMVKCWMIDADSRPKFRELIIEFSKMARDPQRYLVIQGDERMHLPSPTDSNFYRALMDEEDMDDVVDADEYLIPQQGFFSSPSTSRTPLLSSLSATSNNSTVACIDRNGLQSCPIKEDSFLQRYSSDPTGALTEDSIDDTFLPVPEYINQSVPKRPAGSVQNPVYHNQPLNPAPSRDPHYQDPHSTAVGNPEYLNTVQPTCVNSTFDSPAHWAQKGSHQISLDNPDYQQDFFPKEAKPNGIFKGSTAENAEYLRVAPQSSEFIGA
Summary of the method: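 TR-FRET kinase assay: 0.35 nM EGFR, 150 μM ATP, 100 nM substrate, 2 h at room temperature in the dark after 5 min enzyme-compound preincubation, 1% DMSO. Compounds tested as 11-point 3-fold series, 2.5 μM to 0.042 nM final, duplicate; IC50 from 665/615 nm ratio-based inhibition.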

HER2 kinase = HER2 kinase (Homo sapiens (Human), UniProt P04626); assay: Inhibition of HER2 kinase activity (ULight-labeled PolyGT substrate); assay type: biochemical; details: HER2 kinase 10 nM, ATP 10 μM, 2 hours
Sequence of HER2 kinase (P04626 23-1255): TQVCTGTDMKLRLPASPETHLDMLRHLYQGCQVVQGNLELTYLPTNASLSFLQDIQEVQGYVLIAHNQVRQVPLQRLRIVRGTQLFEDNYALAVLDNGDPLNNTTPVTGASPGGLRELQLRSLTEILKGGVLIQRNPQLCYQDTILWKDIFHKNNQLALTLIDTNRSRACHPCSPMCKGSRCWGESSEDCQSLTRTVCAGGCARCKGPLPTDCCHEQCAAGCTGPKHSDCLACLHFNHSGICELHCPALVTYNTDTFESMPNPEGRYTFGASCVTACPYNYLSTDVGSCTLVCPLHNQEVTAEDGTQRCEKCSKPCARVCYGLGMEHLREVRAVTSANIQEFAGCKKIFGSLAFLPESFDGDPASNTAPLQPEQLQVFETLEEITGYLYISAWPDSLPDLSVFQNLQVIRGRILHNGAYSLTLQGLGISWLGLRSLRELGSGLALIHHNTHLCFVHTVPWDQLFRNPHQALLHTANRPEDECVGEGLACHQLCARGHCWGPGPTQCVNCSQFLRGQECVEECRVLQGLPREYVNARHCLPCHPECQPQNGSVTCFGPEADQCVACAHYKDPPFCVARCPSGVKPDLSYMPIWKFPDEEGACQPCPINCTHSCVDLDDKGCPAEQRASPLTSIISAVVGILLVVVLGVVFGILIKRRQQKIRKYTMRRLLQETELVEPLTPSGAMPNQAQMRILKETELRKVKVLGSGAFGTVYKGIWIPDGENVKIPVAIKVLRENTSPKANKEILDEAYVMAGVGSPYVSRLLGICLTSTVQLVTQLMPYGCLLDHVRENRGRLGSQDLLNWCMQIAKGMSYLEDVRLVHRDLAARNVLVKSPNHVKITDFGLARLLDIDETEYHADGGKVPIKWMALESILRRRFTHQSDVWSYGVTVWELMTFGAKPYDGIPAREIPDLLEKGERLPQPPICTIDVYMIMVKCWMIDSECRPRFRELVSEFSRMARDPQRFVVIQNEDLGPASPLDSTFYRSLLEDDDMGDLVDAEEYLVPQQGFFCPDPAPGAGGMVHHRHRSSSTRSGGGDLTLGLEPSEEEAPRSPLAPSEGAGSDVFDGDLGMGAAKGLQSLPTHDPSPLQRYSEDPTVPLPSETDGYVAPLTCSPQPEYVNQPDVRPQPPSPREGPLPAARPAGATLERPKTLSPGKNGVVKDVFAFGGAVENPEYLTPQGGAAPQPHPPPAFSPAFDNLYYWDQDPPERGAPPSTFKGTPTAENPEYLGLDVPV
Summary of the method: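 Eleven-point 3-fold dilutions (0.042 nM–2.5 μM final, 1% DMSO) tested in duplicate against 10 nM HER2 with 100 nM ULight-labelled PolyGT and 10 μM ATP. Reaction ran 2 h at RT after 5 min pre-incubation; 665/615 nm TR-FRET ratio used to derive inhibition and IC50.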

HCC827 cells = assay: Inhibition of cell proliferation, HCC827 (CCK-8, 72 h); assay type: cell-based; details: 72 h incubation
Summary of the method: as §1

[1] = Homo sapiens, BT-474, 72 h incubation

Structure (SMILES) | IC50 (BT474 cells; [1]) [nM] | IC50 (EGFR kinase) [nM] | IC50 (HER2 kinase) [nM] | IC50 (HCC827 cells; Homo sapiens) [nM] | IC50 (BT474 cells; 72 h incubation) [nM] | IC50 (HCC827 cells) [nM]
CN(C)C/C=C/C(=O)N1CCOc2c1ccc1ncnc(Nc3ccc(OCc4cccc(F)c4)cc3)c21 [Example 61, (E)-4-(dimethylamino)-1-(10-((4-((3-fluorobenzyl)oxy)phenyl)amino)-2,3-dihydro-4H-[1,4]oxazino[2,3-f]quinazolin-4-yl)but-2-en-1-one] | ≤ 50 | ≤ 50 | ≤ 50 | > 5000 | – | –
CN(C)C/C=C/C(=O)N1CCOc2c1ccc1ncnc(Nc3ccc(OCc4cccc(C(F)(F)F)c4)cc3)c21 [Example 62] | – | ≤ 50 | ≤ 50 | – | 50 to 500 | > 5000
CN(C)C/C=C/C(=O)N1CCOc2c1ccc1ncnc(Nc3ccc(OCc4ccccn4)cc3)c21 [Example 63, (E)-4-(dimethylamino)-1-(10-((4-(pyridin-2-ylmethoxy)phenyl)amino)-2,3-dihydro-4H-[1,4]oxazino[2,3-f]quinazolin-4-yl)but-2-en-1-one] | ≤ 50 | 50 to 500 | ≤ 50 | 500 to 5000 | – | –
CN(C)C/C=C/C(=O)N1CCOc2c1ccc1ncnc(Nc3ccc(OCc4cccs4)cc3)c21 [Example 64, (E)-4-(dimethylamino)-1-(10-((4-(thiophen-2-ylmethoxy)phenyl)amino)-2,3-dihydro-4H-[1,4]oxazino[2,3-f]quinazolin-4-yl)but-2-en-1-one] | ≤ 50 | 50 to 500 | ≤ 50 | 50 to 500 | – | –
CN(C)C/C=C/C(=O)N1CCOc2c1ccc1ncnc(Nc3ccc(OCc4nccs4)cc3)c21 [Example 65, (E)-4-(dimethylamino)-1-(10-((4-(thiazol-2-ylmethoxy)phenyl)amino)-2,3-dihydro-4H-[1,4]oxazino[2,3-f]quinazolin-4-yl)but-2-en-1-one] | ≤ 50 | ≤ 50 | ≤ 50 | 50 to 500 | – | –
CN(C)C/C=C/C(=O)N1CCOc2c1ccc1ncnc(Nc3ccc(SCc4ccccc4)cc3)c21 [Example 66, (E)-4-(dimethylamino)-1-(10-((4-(benzylthio)phenyl)amino)-2,3-dihydro-4H-[1,4]oxazino[2,3-f]quinazolin-4-yl)but-2-en-1-one] | ≤ 50 | ≤ 50 | ≤ 50 | 500 to 5000 | – | –
COc1cc(Nc2ncnc3ccc4c(c23)OCCN4C(=O)/C=C/CN(C)C)ccc1OCc1cccc(F)c1 [Example 68, (E)-4-(dimethylamino)-1-(10-((4-((3-fluorobenzyl)oxy)-3-methoxyphenyl)amino)-2,3-dihydro-4H-[1,4]oxazino[2,3-f]quinazolin-4-yl)but-2-en-1-one] | ≤ 50 | ≤ 50 | ≤ 50 | 500 to 5000 | – | –
CN(C)C/C=C/C(=O)N1CCOc2c1ccc1ncnc(Nc3ccc(OCc4cccc(F)c4)c(F)c3)c21 [Example 69, (E)-4-(dimethylamino)-1-(10-((4-((3-fluorobenzyl)oxy)-3-fluorophenyl)amino)-2,3-dihydro-4H-[1,4]oxazino[2,3-f]quinazolin-4-yl)but-2-en-1-one] | ≤ 50 | ≤ 50 | ≤ 50 | 500 to 5000 | – | –
Cc1ccc(F)c(Oc2ccc(Nc3ncnc4ccc5c(c34)OCCN5C(=O)/C=C/CN(C)C)cc2)c1 [Example 71, (E)-4-(dimethylamino)-1-(10-((4-(2-fluoro-5-methylphenoxy)phenyl)amino)-2,3-dihydro-4H-[1,4]oxazino[2,3-f]quinazolin-4-yl)but-2-en-1-one] | ≤ 50 | ≤ 50 | ≤ 50 | 500 to 5000 | – | –
CN(C)C/C=C/C(=O)N1CCOc2c1ccc1ncnc(Nc3ccc(Oc4cc(Cl)ccc4F)cc3)c21 [Example 72, (E)-4-(dimethylamino)-1-(10-((4-(5-chloro-2-fluorophenoxy)phenyl)amino)-2,3-dihydro-4H-[1,4]oxazino[2,3-f]quinazolin-4-yl)but-2-en-1-one] | ≤ 50 | ≤ 50 | ≤ 50 | 50 to 500 | – | –
CN(C)C/C=C/C(=O)N1CCOc2c1ccc1ncnc(Nc3ccc(Oc4cc(F)ccc4F)cc3)c21 [Example 73, (E)-4-(dimethylamino)-1-(10-((4-(2,5-difluorophenoxy)phenyl)amino)-2,3-dihydro-4H-[1,4]oxazino[2,3-f]quinazolin-4-yl)but-2-en-1-one] | ≤ 50 | 50 to 500 | ≤ 50 | 500 to 5000 | – | –
CC(Oc1ccc(Nc2ncnc3ccc4c(c23)OCCN4C(=O)/C=C/CN(C)C)cc1)c1cccc(F)c1 (stereo not drawn) [Example 74, (E)-4-(dimethylamino)-1-(10-((4-(1-(3-fluorophenyl)ethoxy)phenyl)amino)-2,3-dihydro-4H-[1,4]oxazino[2,3-f]quinazolin-4-yl)but-2-en-1-one] | ≤ 50 | 50 to 500 | ≤ 50 | 500 to 5000 | – | –
CN(C)C/C=C/C(=O)N1CCOc2c1ccc1ncnc(Nc3ccc(OCc4cccnc4)cc3)c21 [Example 76, (E)-4-(dimethylamino)-1-(10-((4-(pyridin-3-ylmethoxy)phenyl)amino)-2,3-dihydro-4H-[1,4]oxazino[2,3-f]quinazolin-4-yl)but-2-en-1-one] | ≤ 50 | 500 to 5000 | ≤ 50 | 50 to 500 | – | –
CN(C)C/C=C/C(=O)N1CCOc2c1ccc1ncnc(Nc3ccc(OCc4cccc(Cl)c4)cc3)c21 [Example 83, (E)-1-(10-((4-((3-chlorobenzyl)oxy)phenyl)amino)-2,3-dihydro-4H-[1,4]oxazino[2,3-f]quinazolin-4-yl)-4-(dimethylamino)but-2-en-1-one] | ≤ 50 | ≤ 50 | ≤ 50 | 500 to 5000 | – | –
O=C(/C=C/CN1CCCC1)N1CCOc2c1ccc1ncnc(Nc3ccc(Oc4ccccc4)cc3)c21 [Example 91, (E)-1-(10-((4-phenoxyphenyl)amino)-2,3-dihydro-4H-[1,4]oxazino[2,3-f]quinazolin-4-yl)-4-(pyrrolidin-1-yl)but-2-en-1-one] | ≤ 50 | ≤ 50 | ≤ 50 | 500 to 5000 | – | –
CCN(CC)C/C=C/C(=O)N1CCOc2c1ccc1ncnc(Nc3ccc(Oc4ccccc4)cc3)c21 [Example 92, (E)-4-(diethylamino)-1-(10-((4-phenoxyphenyl)amino)-2,3-dihydro-4H-[1,4]oxazino[2,3-f]quinazolin-4-yl)but-2-en-1-one] | ≤ 50 | ≤ 50 | ≤ 50 | 500 to 5000 | – | –
O=C(/C=C/CN1CCCCC1)N1CCOc2c1ccc1ncnc(Nc3ccc(Oc4ccccc4)cc3)c21 [Example 93, (E)-1-(10-((4-phenoxyphenyl)amino)-2,3-dihydro-4H-[1,4]oxazino[2,3-f]quinazolin-4-yl)-4-(piperidin-1-yl)but-2-en-1-one] | ≤ 50 | ≤ 50 | ≤ 50 | 50 to 500 | – | –
O=C(/C=C/CN1CCOCC1)N1CCOc2c1ccc1ncnc(Nc3ccc(Oc4ccccc4)cc3)c21 [Example 94, (E)-4-morpholino-1-(10-((4-phenoxyphenyl)amino)-2,3-dihydro-4H-[1,4]oxazino[2,3-f]quinazolin-4-yl)but-2-en-1-one] | ≤ 50 | ≤ 50 | ≤ 50 | 500 to 5000 | – | –
